Molecular target: T1, SUV39H1 (Homo sapiens, UniProt O43463)
T1 construct: recombinant SUV39H1
T1 sequence (O43463 1-412): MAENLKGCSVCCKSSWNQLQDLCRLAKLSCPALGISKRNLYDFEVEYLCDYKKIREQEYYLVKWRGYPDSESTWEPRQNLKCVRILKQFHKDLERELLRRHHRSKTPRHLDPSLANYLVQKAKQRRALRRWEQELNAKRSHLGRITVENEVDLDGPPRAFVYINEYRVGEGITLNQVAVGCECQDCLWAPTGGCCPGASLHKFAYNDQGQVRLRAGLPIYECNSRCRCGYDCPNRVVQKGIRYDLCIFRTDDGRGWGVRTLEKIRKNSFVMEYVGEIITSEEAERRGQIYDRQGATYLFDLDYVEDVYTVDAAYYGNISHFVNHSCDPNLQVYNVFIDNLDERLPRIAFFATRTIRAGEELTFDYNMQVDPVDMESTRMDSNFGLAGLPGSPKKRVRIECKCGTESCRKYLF
Experiment: cell-free histone methyltransferase activity assay with recombinant enzyme (data not shown)
Assay type: biochemical

Question: With CN1C(=O)[C@@]23C[C@](C)(C#N)[C@H](c4ccc5c(c4)OCO5)N2C(=O)[C@]1(C)SS3 (racemic) [NT1721] as the compound, how does the IC50 read?
Answer: 1300 nM
